For the assay, the target named is T1, Smc1/Smc3 heterodimer with Scc1-C (cohesin) (Saccharomyces cerevisiae, UniProt P32908+P47037, P47037:K38I, form not given).
T1 construct: N-terminal tags; Sf9 insect cells; fluorescently labelled for MST; with Sister chromatid cohesion protein 1
T1 sequence (P32908 1-1225): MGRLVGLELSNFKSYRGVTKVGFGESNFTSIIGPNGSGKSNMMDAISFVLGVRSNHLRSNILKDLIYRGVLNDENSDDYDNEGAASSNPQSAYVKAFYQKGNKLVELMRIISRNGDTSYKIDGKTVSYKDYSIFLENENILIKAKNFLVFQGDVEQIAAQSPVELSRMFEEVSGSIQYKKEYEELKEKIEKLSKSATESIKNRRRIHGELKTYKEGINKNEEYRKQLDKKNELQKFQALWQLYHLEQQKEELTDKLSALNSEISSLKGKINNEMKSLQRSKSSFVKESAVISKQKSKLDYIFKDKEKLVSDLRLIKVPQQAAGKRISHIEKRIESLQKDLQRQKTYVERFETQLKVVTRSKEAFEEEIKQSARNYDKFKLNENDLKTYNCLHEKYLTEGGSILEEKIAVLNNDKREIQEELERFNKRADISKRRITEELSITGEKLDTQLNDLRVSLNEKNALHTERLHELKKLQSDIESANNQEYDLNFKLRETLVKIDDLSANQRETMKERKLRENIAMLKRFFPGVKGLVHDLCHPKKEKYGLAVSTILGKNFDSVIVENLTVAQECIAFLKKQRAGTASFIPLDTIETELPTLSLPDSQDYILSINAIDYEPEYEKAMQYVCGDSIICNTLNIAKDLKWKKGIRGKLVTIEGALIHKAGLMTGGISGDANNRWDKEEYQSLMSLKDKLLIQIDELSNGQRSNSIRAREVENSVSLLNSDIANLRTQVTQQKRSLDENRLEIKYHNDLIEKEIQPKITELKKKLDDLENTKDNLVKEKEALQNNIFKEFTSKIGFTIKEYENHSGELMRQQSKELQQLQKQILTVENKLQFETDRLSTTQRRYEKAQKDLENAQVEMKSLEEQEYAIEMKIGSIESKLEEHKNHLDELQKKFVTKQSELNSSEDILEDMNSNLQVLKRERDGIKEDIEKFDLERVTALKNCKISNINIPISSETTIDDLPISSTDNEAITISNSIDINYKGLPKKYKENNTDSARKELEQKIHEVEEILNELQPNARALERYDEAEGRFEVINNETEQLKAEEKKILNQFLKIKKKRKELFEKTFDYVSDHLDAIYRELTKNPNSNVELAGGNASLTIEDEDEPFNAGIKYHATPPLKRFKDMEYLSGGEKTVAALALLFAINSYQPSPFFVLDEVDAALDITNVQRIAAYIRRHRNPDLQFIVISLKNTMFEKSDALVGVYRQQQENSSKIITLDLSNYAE
T1 sequence (P47037 1-1230 K38I): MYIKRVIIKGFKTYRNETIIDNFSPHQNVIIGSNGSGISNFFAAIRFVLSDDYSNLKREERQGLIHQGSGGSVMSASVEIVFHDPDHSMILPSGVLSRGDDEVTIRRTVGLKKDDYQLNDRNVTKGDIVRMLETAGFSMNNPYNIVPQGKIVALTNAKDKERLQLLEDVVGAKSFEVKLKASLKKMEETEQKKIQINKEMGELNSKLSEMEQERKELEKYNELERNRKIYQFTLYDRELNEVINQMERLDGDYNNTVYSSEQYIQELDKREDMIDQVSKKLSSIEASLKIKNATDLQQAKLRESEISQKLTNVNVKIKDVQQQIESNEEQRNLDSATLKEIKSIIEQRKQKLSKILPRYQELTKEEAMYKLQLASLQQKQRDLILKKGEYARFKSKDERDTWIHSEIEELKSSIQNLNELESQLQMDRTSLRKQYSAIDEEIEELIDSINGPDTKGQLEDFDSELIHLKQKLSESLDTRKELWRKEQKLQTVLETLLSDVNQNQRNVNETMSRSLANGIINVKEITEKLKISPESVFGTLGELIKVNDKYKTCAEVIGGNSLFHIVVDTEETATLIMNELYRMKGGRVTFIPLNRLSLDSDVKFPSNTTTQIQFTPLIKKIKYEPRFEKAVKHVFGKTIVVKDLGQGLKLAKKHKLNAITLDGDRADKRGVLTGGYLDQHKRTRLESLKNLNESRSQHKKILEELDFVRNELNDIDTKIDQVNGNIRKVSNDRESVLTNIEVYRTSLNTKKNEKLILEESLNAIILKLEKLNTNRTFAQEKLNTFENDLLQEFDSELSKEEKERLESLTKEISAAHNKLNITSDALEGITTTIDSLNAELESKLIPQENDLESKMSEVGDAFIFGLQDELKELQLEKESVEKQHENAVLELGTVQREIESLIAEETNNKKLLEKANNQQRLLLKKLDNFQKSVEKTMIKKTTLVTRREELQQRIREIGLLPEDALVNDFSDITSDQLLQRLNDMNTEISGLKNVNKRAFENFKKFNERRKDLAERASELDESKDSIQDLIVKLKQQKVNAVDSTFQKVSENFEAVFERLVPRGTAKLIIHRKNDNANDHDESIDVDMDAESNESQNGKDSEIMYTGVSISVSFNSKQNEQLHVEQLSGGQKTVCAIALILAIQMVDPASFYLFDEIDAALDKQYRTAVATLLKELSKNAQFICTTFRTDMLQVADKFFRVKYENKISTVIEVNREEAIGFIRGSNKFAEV
T1 sequence (Q12158 1-566 partner): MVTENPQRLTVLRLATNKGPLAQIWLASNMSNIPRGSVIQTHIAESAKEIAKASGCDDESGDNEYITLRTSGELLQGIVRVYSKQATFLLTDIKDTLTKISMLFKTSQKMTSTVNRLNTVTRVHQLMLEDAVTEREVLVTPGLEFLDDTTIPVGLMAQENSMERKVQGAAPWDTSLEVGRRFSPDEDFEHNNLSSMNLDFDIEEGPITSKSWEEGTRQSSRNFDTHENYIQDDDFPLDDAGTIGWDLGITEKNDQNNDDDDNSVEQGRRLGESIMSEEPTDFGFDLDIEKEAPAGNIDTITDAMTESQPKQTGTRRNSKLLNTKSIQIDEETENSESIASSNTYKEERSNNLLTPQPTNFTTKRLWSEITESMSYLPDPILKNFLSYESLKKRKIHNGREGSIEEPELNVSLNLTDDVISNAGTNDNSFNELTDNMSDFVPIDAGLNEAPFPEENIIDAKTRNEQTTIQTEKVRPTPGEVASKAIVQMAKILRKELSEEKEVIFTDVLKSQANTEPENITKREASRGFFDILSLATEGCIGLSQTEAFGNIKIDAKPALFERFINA
The experiment in a line: microscale thermophoresis. The settings on record: fluorescently labelled protein; Smc1 co-purified with Scc1-C, plus Smc3; binding abrogated.

In the case of `Nc1ncnc2c1ncn2[C@@H]1O[C@H](COP(=O)(O)OP(=O)(O)OP(=O)(O)O)[C@@H](O)[C@H]1O` [ATP], the microscale thermophoresis result is “each of the Walker A mutations efficiently abrogated binding to ATP and ADP”.
Consider `Nc1ncnc2c1ncn2[C@@H]1O[C@H](COP(=O)(O)OP(=O)(O)O)[C@@H](O)[C@H]1O` [ADP], for which the microscale thermophoresis result is “each of the Walker A mutations efficiently abrogated binding to ATP and ADP”.

Source of the values: publication PMC4769319, “Cohesin Releases DNA through Asymmetric ATPase-Driven Ring Opening” (Molecular Cell, 2016).
